Patent EP3281644A1, “STABLE FLUORESCENT NANOVESICLES, METHOD FOR OBTAINING THEM AND USES THEREOF” (Consejo Superior De Investigaciones Científicas, priority 2016, dated 2018)

Columns and labels:
[1] = Photochemical decomposition quantum yield under continuous laser irradiation; assay type: physicochemical; settings: free dye in EtOH; diode laser 660 nm
Description: Photostabilities of DiD in EtOH and of DiD-nanovesicles were analyzed by monitoring the evolution over time of absorbance of the samples under continuous laser irradiation. The data are shown in Table below and are also represented in Figure 8. Additional column in Table 1 for rows of DiD
The quantum yields of photoreaction were calculated following the method proposed by Belfield et al. "Photophysical and photochemical properties of 5,7-di-methoxycoumarin under one- and two-photon excitation". J. Phys. Org. Chem. 16, 69-78 (2003).
Sample photostability under continuous-wave excitation was determined by measuring the photochemical decomposition quantum yield. […]
Quantum yields of photochemical decomposition were measured in ethanol (for DID) and water (FI, NDB and all nanovesicle samples) using absorption and fluorescence methods, where the number of bleached molecules is determined by a kinetic decrease in absorbance or fluorescence intensity under the assumption that fluorescence and absorbance of the photoproducts are negligible in the spectral region of dye fluorescence and main absorption band. Fluorescence method was used to estimate the photostability of dilute samples (with maximum absorbance < 0.1), while photochemical decomposition quantum yields of concentrated solutions (with maximum absorbance ≈ 1) were determined by absorption method. […]

[2] = reference standard; in methanol; cited from earlier work

Compound | Photodecomposition QY*10^-5 [1] | QY, Φ [2] [%]
CCCCCCCCCCCCCCCCCCN1C(=CC=CC=CC2=[N+](CCCCCCCCCCCCCCCCCC)c3ccccc3C2(C)C)C(C)(C)c2ccccc21.[O-][Cl+3]([O-])([O-])[O-] [DiD EtOH, 1,1'-dioctadecyl-3,3,3',3'-tetramethyl-indodicarbocyanine perchlorate] | <0,008 *10^-5 | –
cresyl violet | – | 56
